Read-outs that look alike come from different tables or passages of the source.
Tests used:
[1] = solid form
Procedure: The analyses were carried out on a Panalytical X'Pert Pro diffractometer with a reflection-mode Bragg-Brentano focusing geometry (θ-2θ) assembly. The product analysed is deposited as a thin layer on a silicon single crystal. A copper anticathode tube (45 kV/40 mA) supplies an incident radiation Cu Kα1 (λ=1.5406 Å). The beam is collimated using Sollers slits which improve the parallelism and variable slits which limit scattering. An X'Celerator detector completes the device. The diagram recording characteristics are the following: sweeping from 2 to 30 degrees 2θ, counting time from 100 to 500 seconds per step with a step of 0.017°.

[2] = behaviour of the crystalline form under relative humidity; format: physicochemical; conditions: relative humidity of greater than 5%

Compound	stability relative to the other forms described (listed as anhydrous form D)	comparison of the PXRD analyses immediately after production and after maintaining at 40° C. for one month [1]	stability relative to the other forms described	change of form in the presence of relative humidity [2]
CO[C@H]1C(=O)[C@]2(C)[C@@H](OC)C[C@H]3OC[C@@]3(OC(C)=O)[C@H]2[C@H](OC(=O)c2ccccc2)[C@]2(O)C[C@H](OC(=O)[C@H](O)[C@@H](NC(=O)OC(C)(C)C)c3ccccc3)C(C)=C1C2(C)C [Form D]	most stable anhydrous form	no change detected		
CO[C@H]1C(=O)[C@]2(C)[C@@H](OC)C[C@H]3OC[C@@]3(OC(C)=O)[C@H]2[C@H](OC(=O)c2ccccc2)[C@]2(O)C[C@H](OC(=O)[C@H](O)[C@@H](NC(=O)OC(C)(C)C)c3ccccc3)C(C)=C1C2(C)C [anhydrous form C]			least stable	changes to a hydrated form
CO[C@H]1C(=O)[C@]2(C)[C@@H](OC)C[C@H]3OC[C@@]3(OC(C)=O)[C@H]2[C@H](OC(=O)c2ccccc2)[C@]2(O)C[C@H](OC(=O)[C@H](O)[C@@H](NC(=O)OC(C)(C)C)c3ccccc3)C(C)=C1C2(C)C [Form A, reference compound]		partial desolvation resulting in a mixture of the acetone solvate form A and of the anhydrous form B being obtained		

— patent US20190144406A1, “CRYSTALLINE FORMS OF DIMETHOXY DOCETAXEL AND METHODS FOR PREPARING THE SAME” (Aventis Pharma S.A., priority 2008, published 2019)
